What was measured:
[1] = system: BLECs; experiment: Expression of adhesion molecules by BLECs (FACS); type: cell-based, human; conditions: 10 ng/mL for 24 h
Description: Adhesion molecule expression by BLECs was determined by FACS. For these experiments, CD34^+-ECs were cultured with pericytes for 6 days. After co-culture, transwells with BLEC monolayers were transferred to a new 12-well plate. BLECs were treated with 10 ng/mL TNF-α (Peprotech) for 24 h. Untreated BLECs were used as control. Cells were dissociated from the culture plate by exposure to Cell Dissociation Buffer (Life Technologies) for 3–5 min and gentle pipetting, centrifuged and finally resuspended in PBS supplemented with 5% (v/v) FBS. The single cell suspensions were aliquoted (2.0×10^5 cells per condition) and incubated with primary antibodies against human CD40, ICAM1, ICAM2, VCAM1, PECAM1 (Table S1). After the incubation with primary antibodies, cells were incubated with phycoerytrin (PE)-conjugated anti-rabbit (R&D Systems), and PE-conjugated anti-mouse (Santa Cruz) secondary antibodies. FACS Calibur (BD Biosciences) and BD Cell Quest Software (BD Biosciences) were used for the acquisition and analysis of the data.
FACS analysis. Cells were dissociated from the culture plate by exposure to Cell Dissociation Buffer (Life Technologies) for 3-5 min and gentle pipetting, centrifuged and finally resuspended in PBS supplemented with 5% (v/v) FBS. […]

[2] = system: brain-like endothelial cells (BLECs); experiment: Endothelial permeability (Pe) to Lucifer yellow, ECs co-cultured with pericytes (BLECs); type: in vitro ADME, human; conditions: day 6, n = 60
Description: For co-culture experiments, pericytes were initially seeded on 60-mm gelatin-coated petri dishes and cultured in Dulbecco’s Modified Eagle’s Medium (DMEM) (Life Technologies) supplemented with 20% (v/v) FBS (Life Technologies), 2 mM L-glutamine, 50 µg/mL gentamycin and 1 ng/mL bFGF. The cells reached confluency after 2 days. 45×10^3 cells were seeded into each well of 12-well plates (Costar). […]
Prior to the experiments, HEPES-buffered Ringer’s solution (in some cases EBM-2 medium) was added to empty wells of a 12-well plate (Costar). […] Aliquots from the donor solution were taken at the beginning and at the end of the experiments and the fluorescence was quantified. […] Fluorescence detection was carried out on a Synergy H1 multiplates reader (Biotek) using the following excitation/emission wavelength (nm) settings: 432/538; 490/516; 542/570 for Lucifer yellow, Fluorescein Na and Cy3-Human Serum Albumin and Human IgG respectively.
(§1) To obtain a concentration-independent transport parameter, the clearance principle was used. The increment in cleared volume was calculated by dividing the amount of compound in the receiver compartment by the drug concentration in the donor compartment. […] The PS-value for endothelial monolayer (PSe) was calculated. […]

[3] = system: monolayers of CD34+-derived ECs (monoculture); experiment: Endothelial permeability (Pe) to Lucifer yellow, ECs in monoculture; type: in vitro ADME, human; conditions: CD34+-derived ECs grown to confluence on filters for 6 days
Description: (§2) Prior to the experiments, HEPES-buffered Ringer’s solution (in some cases EBM-2 medium) was added to empty wells of a 12-well plate (Costar). Filter inserts, containing confluent monolayers of CD34^+-ECs, were subsequently placed in the 12-well plate, filled with compound solution containing the fluorescent integrity marker Lucifer Yellow (20 µM; Life Technologies), and then placed on an orbital shaker. After 1 h, filter inserts were withdrawn from the receiver compartment. Aliquots from the donor solution were taken at the beginning and at the end of the experiments and the fluorescence was quantified. At least three inserts with cells and three without cells were tested in each permeability measurement. Fluorescence detection was carried out on a Synergy H1 multiplates reader (Biotek) using the following excitation/emission wavelength (nm) settings: 432/538; 490/516; 542/570 for Lucifer yellow, Fluorescein Na and Cy3-Human Serum Albumin and Human IgG respectively.
as §1, with “compartment. The volume cleared was plotted versus time and the slope estimated by linear regression analysis.” for “compartment.”

[4] = system: cord blood-derived ECs co-cultured with astrocytes; design: method as in PMID 24392113; conditions: BBB model of cord blood-derived ECs co-cultured with astrocytes; cited from earlier work
[5] = system: CD34+-derived ECs; experiment: qRT-PCR of claudin-1 and LEF1 in ECs treated with Wnt ligands; type: cell-based, human; conditions: EC monoculture
Description: (§3) For Wnt signaling experiments, mono- and co-culture systems were used. In monoculture, 8×10^4 CD34^+-ECs were seeded on the Matrigel-coated transwell insert. The cells were then incubated with agonists/ligands (6.25 ng/mL–100 ng/mL Wnt3A (R&D Systems), 6.25 ng/mL–250 ng/mL Wnt7A (Peprotech) or 0.5–5 µM BIO (Sigma)) for 1 or 5 days. Co-cultures were prepared as described before. The CD34^+-derived ECs co-cultured with pericytes for 1 or 6 days were used in the signaling experiments. Agonist (0.5–5 µM BIO) was added into the basolateral compartment while antagonist (0.1–3 µM XAV939 (Selleckbio)) was added in the apical part of the transwell system.
Reverse transcription and quantitative real time polymerase chain reaction (qRT-PCR) analysis. CD34^+-ECs cultured in different conditions were homogenized in Trizol reagent (Life Technologies) and total RNA was extracted using the RNeasy Mini Kit (Qiagen), according to manufacturer’s instructions. In all cases, cDNA was prepared from 1 μg total RNA using Taqman Reverse transcription reagents (Applied Biosystems). Non-quantitative RT-PCR was performed using the conditions described in [4] and DNA migrated on a agarose gel electrophoresis (1.5%) with a low range DNA molecular weight marker (Euromedex) to visualize the sizes. Gels were then stained with gel red nucleic acid gel stain (Interchim) and visualized on a UV light transilluminator (Bio-Rad). Quantitative real time PCR (qRT-PCR) was performed using Power SYBR Green PCR Master Mix (Applied Biosystems) and the detection was carried out in a 7500 Fast Real-Time PCR System (Applied Biosystems). Quantification of target genes was performed relatively to the reference GAPDH gene: relative expression = 2^[-(Ctsample^-CtGADPH^)]. Primer sequences are given as supporting information (Table S2).

[6] = system: β-catenin; experiment: Wnt signaling experiments: β-catenin expression in monocultures of ECs; type: cell-based, human; conditions: EC monoculture; for expression of active β-catenin: after 1 day; for expression and nuclear localization of total β-catenin: day 3, BIO 0.5 µM, Wnt3a 6.25 ng/mL
Description: as §3, with “The cells were then incubated with agonists/ligands (6.25 ng/mL–100 ng/mL Wnt3A (R&D Systems), 6.25 ng/mL–250 ng/mL Wnt7A (Peprotech) or 0.5–5 µM BIO (Sigma)) for 1 or 5 days.” left out
Immunostaining. Cells were fixed in cold methanol/acetone (50%/50% v/v) for 1 min or 4% (v/v) paraformaldehyde (Electron Microscopy Sciences, EMS) for 10 min at room temperature (see Table S1). After permeabilizing the cells with 0.1% (v/v) Triton X-100 (Sigma-Aldrich) for 5-10 min, whenever required, and blocking for 30 min with 1% (w/v) bovine serum albumin (BSA) solution (Sigma-Aldrich) or normal goat serum (10% (v/v), Sigma-Aldrich), the cells were incubated for 1 h with the primary monoclonal antibodies listed in Table S1, at room temperature. After washing, the cells were stained with a secondary antibody for 1 h in the dark at room temperature (Table S1). In each immunofluorescence experiment, an isotype-matched IgG control was used. The nuclei of cells was stained with 4',6-diamidino-2-phenylindole (DAPI; Sigma-Aldrich) or Hoescht reagent (ICN Pharmaceuticals). Cells were mounted using Mowiol (Sigma-Aldrich) containing an anti-fading agent (Dabco, Sigma-Aldrich) or cell-mounting medium from DAKO. Cells were examined with a Zeiss LSM 50 confocal microscope or with a Leica DMR fluorescence microscope (Leica Microsystems). In the last case, images were collected using a Cool SNAP RS Photometrics camera (Leica Microsystems) and were processed using Adobe Photoshop software 5.5 (Adobe systems).
FACS analysis. Cells were dissociated from the culture plate by exposure to Cell Dissociation Buffer (Life Technologies) for 3-5 min and gentle pipetting, centrifuged and finally resuspended in PBS supplemented with 5% (v/v) FBS. The single cell suspensions were aliquoted (2.0×10^5 cells per condition), fixed with 4% (v/v) paraformaldehyde (PFA; EMS) or ice-cold absolute methanol and permeabilized with 0.1% (w/v) Triton X-100 (Fluka) when necessary. The cells were stained with antigen-specific primary antibodies (dilution ratios and list of antibodies are given on Table S1). After the incubation with primary antibodies, cells were incubated with phycoerytrin (PE)-conjugated anti-rabbit (R&D Systems), and PE-conjugated anti-mouse (Santa Cruz) secondary antibodies. FACS Calibur (BD Biosciences) and BD Cell Quest Software (BD Biosciences) were used for the acquisition and analysis of the data.

[7] = system: CD34+-derived ECs; experiment: Immunostaining of claudin-1 in treated EC monocultures; type: cell-based, human; conditions: EC monoculture, day 6; BIO 0.5 µM, Wnt3a 6.25 ng/mL
Description: as §3
Immunostaining. Cells were fixed in cold methanol/acetone (50%/50% v/v) for 1 min or 4% (v/v) paraformaldehyde (Electron Microscopy Sciences, EMS) for 10 min at room temperature (see Table S1). After permeabilizing the cells with 0.1% (v/v) Triton X-100 (Sigma-Aldrich) for 5-10 min, whenever required, and blocking for 30 min with 1% (w/v) bovine serum albumin (BSA) solution (Sigma-Aldrich) or normal goat serum (10% (v/v), Sigma-Aldrich), the cells were incubated for 1 h with the primary monoclonal antibodies listed in Table S1, at room temperature. […] Cells were examined with a Zeiss LSM 50 confocal microscope or with a Leica DMR fluorescence microscope (Leica Microsystems). […]

[8] = system: monocultures of CD34+-derived ECs; experiment: Wnt signaling experiments: paracellular permeability of treated EC monocultures; type: cell-based, human; conditions: Wnt3a 6.25 ng/mL
Description: as §2
To obtain a concentration-independent transport parameter, the clearance principle was used. The increment in cleared volume was calculated by dividing the amount of compound in the receiver compartment by the drug concentration in the donor compartment. The volume cleared was plotted versus time and the slope estimated by linear regression analysis. The slope of the clearance curve with inserts alone and inserts with cells is equal to PSf and PSt, respectively, where PS (microliters/minute) is the permeability surface area (square centimeter) product. The PS-value for endothelial monolayer (PSe) was calculated. To generate the endothelial permeability coefficient, Pe (cm/min), the PSe value was divided by the surface area of the filter (A in cm^2) insert using the following equation: Pe = [1/PSt−1/PSf]^−1/A. To assess possible adsorption to plastics and non-specific binding to cells, the mass balance (%) was calculated from the amount of compound recovered in both compartments at the end of the experiment divided by the total amount added in the donor compartment at time zero. For Pe determination, mass balance value should be between 80% and 120%.
as §3

[9] = biological target: P-gp (Homo sapiens, UniProt P08183); conditions: [3H]-vincristine sulphate 66.5 nM, 2 h; 25 μM verapamil or 0.5 μM elacridar
[10] = long-term: 1 day of monoculture + 5 day of treatment, Wnt7a 6.25 ng/mL, BIO 0.5 µM

Sequence of P-gp (P08183 whole entry): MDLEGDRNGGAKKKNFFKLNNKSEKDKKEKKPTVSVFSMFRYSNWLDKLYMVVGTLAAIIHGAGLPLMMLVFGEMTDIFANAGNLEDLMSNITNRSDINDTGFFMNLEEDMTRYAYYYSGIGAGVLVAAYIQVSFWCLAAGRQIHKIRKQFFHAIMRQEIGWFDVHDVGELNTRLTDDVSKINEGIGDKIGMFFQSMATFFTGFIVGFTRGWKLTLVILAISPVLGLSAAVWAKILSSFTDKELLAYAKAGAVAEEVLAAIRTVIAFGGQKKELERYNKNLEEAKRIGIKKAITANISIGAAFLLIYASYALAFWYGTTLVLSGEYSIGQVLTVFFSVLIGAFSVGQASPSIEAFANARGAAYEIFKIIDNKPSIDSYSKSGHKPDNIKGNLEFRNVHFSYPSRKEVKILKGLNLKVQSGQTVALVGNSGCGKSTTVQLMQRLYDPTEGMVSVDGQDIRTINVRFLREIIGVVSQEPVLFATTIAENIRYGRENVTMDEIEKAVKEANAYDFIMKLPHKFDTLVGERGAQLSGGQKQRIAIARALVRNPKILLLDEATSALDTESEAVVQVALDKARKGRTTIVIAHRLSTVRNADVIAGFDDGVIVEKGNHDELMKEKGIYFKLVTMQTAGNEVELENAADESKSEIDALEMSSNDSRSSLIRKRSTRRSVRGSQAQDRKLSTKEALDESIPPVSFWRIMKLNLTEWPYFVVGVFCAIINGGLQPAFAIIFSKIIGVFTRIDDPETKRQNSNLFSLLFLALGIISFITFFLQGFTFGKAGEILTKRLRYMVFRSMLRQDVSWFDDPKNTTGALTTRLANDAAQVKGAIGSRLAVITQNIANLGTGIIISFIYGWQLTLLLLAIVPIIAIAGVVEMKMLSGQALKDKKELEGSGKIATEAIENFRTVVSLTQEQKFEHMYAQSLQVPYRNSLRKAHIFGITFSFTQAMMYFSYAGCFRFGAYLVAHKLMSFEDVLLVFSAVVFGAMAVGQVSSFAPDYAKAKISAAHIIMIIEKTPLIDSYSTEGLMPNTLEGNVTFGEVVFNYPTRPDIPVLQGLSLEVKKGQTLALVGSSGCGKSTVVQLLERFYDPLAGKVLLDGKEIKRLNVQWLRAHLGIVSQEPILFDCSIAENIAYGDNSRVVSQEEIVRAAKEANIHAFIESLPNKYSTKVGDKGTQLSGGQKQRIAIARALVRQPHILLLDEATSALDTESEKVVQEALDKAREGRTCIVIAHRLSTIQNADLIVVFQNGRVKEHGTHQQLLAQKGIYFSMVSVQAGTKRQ

In the case of TNF-α, the “expression of ICAM-1, ICAM-2, CD40 and VCAM-1” value [1] is reported as “up-regulation”.

In the case of Lucifer yellow, the “permeability to Lucifer yellow” value [2] is given as 0.61±0.15×10^−3 cm/min, the “permeability to Lucifer yellow” value [3] is given as 33.3 ×10⁻⁶ cm/s and the “Pe to Lucifer yellow” value [4] is given as 20.5 ×10⁻⁶ cm/s.

With `O=C1Nc2cc(Br)ccc2/C1=C1/Nc2ccccc2/C1=N\O` [BIO] the LEF1 gene expression [5] was “up-regulation”, the claudin-1 gene expression [5] was “up-regulation” and the “expression of active β-catenin” value [6] was “increasing”. The “expression and nuclear localization of total β-catenin” value [6] was “increase”, the “localization of claudin-1” value [7] was “localization of claudin-1 at the cell-cell contacts” and the “paracellular permeability to Lucifer Yellow versus untreated cells” value [8, 10] was “only observed after 5-day treatment”.

With `COc1cc2c(cc1OC)CN(CCc1ccc(NC(=O)c3cccc4c(=O)c5cccc(OC)c5[nH]c34)cc1)CC2` [elacridar] the “accumulation of vincristine in BLECs on inhibition of P-gp” value [9] was “significant increase”.

B1: Wnt3a: human recombinant protein Wnt3a, Wnt ligand (protein, UniProt P56704 19-352, looked up)
Protein Wnt-3a: SYPIWWSLAVGPQYSSLGSQPILCASIPGLVPKQLRFCRNYVEIMPSVAEGIKIGIQECQHQFRGRRWNCTTVHDSLAIFGPVLDKATRESAFVHAIASAGVAFAVTRSCAEGTAAICGCSSRHQGSPGKGWKWGGCSEDIEFGGMVSREFADARENRPDARSAMNRHNNEAGRQAIASHMHLKCKCHGLSGSCEVKTCWWSQPDFRAIGDFLKDKYDSASEMVVEKHRESRGWVETLRPRYTYFKVPTERDLVYYEASPNFCEPNPETGSFGTRDRTCNVSSHGIDGCDLLCCGRGHNARAERRREKCRCVFHWCCYVSCQECTRVYDVHTCK
In the case of B1, the LEF1 gene expression [5] is reported as “up-regulation”, the claudin-1 gene expression [5] is reported as “up-regulation” and the “expression of active β-catenin” value [6] is reported as “increasing”. For the same molecule, the “expression and nuclear localization of total β-catenin” value [6] was “increase”, the “localization of claudin-1” value [7] was “localization of claudin-1 at the cell-cell contacts” and the “paracellular permeability to Lucifer Yellow versus untreated cells” value [8, 10] was “statistical lower”. For the same molecule, the “paracellular permeability to Lucifer Yellow versus untreated cells” value ([8]; short-term: 5 days of monoculture + 1 day of treatment, P<0.01, n = 4) was “statistical lower”.

B2: Wnt7a: human recombinant protein Wnt7a, Wnt ligand (protein, UniProt O00755 32-349, looked up)
Protein Wnt-7a: LGASIICNKIPGLAPRQRAICQSRPDAIIVIGEGSQMGLDECQFQFRNGRWNCSALGERTVFGKELKVGSREAAFTYAIIAAGVAHAITAACTQGNLSDCGCDKEKQGQYHRDEGWKWGGCSADIRYGIGFAKVFVDAREIKQNARTLMNLHNNEAGRKILEENMKLECKCHGVSGSCTTKTCWTTLPQFRELGYVLKDKYNEAVHVEPVRASRNKRPTFLKIKKPLSYRKPMDTDLVYIEKSPNYCEEDPVTGSVGTQGRACNKTAPQASGCDLMCCGRGYNTHQYARVWQCNCKFHWCCYVKCNTCSERTEMYTCK
With B2 the “paracellular permeability to Lucifer Yellow versus untreated cells” value [8, 10] was “only observed after 5-day treatment”.
